Assay results as given in patent publication US7968080B2, “Somatostatin analogs with inhibitory activity to growth hormone release” (The Regents of the University of California, priority 2003, dated 2011).
Read-outs that look alike come from different tables or passages of the source.

Tests used:
SST4 = SST4 (Homo sapiens, UniProt P31391); assay: Binding affinities of SS-14, Sandostatin and RC-121 (Table 1); conditions: read-out: Ki ± SEM, SST4
SST1 = SST1 (Homo sapiens, UniProt P30872); assay: as above; conditions: read-out: Ki ± SEM, SST1
Sequence of SST1 (P30872 whole entry, species assumed): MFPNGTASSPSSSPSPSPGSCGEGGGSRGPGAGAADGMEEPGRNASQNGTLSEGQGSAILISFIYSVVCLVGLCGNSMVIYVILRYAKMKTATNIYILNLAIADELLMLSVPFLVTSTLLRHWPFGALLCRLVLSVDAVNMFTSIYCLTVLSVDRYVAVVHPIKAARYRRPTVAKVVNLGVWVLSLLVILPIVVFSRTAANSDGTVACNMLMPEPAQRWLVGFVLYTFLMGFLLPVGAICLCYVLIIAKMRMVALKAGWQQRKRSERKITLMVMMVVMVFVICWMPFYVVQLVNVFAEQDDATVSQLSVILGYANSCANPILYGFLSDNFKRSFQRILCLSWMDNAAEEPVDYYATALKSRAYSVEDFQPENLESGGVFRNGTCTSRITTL

SST3 = SST3 (Homo sapiens, UniProt P32745); assay: as above; conditions: read-out: Ki ± SEM, SST3
Sequence of SST3 (P32745 whole entry, species assumed): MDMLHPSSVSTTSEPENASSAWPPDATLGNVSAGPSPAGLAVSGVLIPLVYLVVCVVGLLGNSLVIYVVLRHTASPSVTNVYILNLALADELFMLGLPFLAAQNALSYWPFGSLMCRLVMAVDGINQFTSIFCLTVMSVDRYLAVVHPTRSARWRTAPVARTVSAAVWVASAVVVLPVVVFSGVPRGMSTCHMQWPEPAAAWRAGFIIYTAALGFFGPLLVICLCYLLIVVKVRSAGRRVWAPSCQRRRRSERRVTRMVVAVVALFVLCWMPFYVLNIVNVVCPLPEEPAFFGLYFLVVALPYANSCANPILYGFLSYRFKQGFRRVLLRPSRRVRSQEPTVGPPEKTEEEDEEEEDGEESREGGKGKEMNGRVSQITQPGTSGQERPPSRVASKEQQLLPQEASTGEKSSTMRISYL

SST 1-5 = conditions: background statement; cited from earlier work
[1] = test system: somatostatin receptors hsst1-5; assay: Binding potencies and selectivities at somatostatin receptors hsst1-5; design: species or system human
hsst2 = hsst2 (Homo sapiens, UniProt P30874); assay: Binding of beta-MeTrp analogs of L-363,301 to hsst2
Sequence of hsst2 (P30874 whole entry): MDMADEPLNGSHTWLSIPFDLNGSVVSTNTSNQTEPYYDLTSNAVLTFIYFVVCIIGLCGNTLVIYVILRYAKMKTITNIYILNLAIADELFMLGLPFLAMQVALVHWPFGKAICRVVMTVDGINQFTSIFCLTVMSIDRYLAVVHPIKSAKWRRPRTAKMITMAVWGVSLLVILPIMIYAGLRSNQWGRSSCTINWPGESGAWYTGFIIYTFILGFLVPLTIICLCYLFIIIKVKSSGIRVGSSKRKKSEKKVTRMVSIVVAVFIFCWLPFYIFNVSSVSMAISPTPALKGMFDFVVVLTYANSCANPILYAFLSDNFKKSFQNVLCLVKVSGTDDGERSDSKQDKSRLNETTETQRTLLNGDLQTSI

Sequence of SST4 (P31391 whole entry, species assumed): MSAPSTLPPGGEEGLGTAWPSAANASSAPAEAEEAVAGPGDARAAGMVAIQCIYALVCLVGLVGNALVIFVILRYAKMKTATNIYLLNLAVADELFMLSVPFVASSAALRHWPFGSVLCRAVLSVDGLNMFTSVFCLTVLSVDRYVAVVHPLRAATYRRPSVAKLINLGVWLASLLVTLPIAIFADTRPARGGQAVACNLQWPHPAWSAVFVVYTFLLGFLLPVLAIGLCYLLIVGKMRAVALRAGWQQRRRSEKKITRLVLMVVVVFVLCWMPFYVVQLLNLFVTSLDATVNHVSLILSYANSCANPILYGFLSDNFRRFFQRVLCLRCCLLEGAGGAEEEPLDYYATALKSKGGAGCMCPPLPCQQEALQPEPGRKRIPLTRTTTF

Row | Compound | interaction with SS receptor subtypes (background) (SST 1-5) | potency relative to parent peptide L-363,301 [1] | selectivity among hsst1-5 [1] | binding to receptor hsst2 (hsst2) | also measured
1 | CC(C)[C@@H]1NC(=O)[C@H](CCCCN)NC(=O)[C@@H](Cc2c[nH]c3ccccc23)NC(=O)[C@H](Cc2ccc(O)cc2)NC(=O)[C@@H](NC(=O)[C@H](N)Cc2ccccc2)CSSC[C@@H](C(=O)N[C@H](C(N)=O)[C@@H](C)O)NC1=O [RC-121, D-Phe-c[Cys-Tyr-D-Trp-Lys-Val-Cys]-Thr-NH2] | – | – | – | – | Ki (SST4): > 1000 nM; Ki (SST1): > 1000 nM; Ki (SST3): > 1000 nM
2 | C[C@@H](O)[C@@H]1NC(=O)[C@H](CCCCN)NC(=O)[C@@H](Cc2c[nH]c3ccccc23)NC(=O)[C@H](Cc2ccccc2)NC(=O)[C@@H](NC(=O)[C@H](N)Cc2ccccc2)CSSC[C@@H](C(=O)N[C@H](CO)[C@@H](C)O)NC1=O [Sandostatin, D-Phe-c[Cys-Phe-D-Trp-Lys-Thr-Cys]-Thr-ol] | interact significantly with three of the receptor subtypes, i.e. SST2, SST3 and SST5 | – | – | – | –
3 | SS-28: N-terminally extended version of SS-14 that has an additional 14 amino acid residues | high affinity | – | – | – | –
4 | c[Pro-Phe-(2R,3R)-β-MeTrp-Lys-Thr-Phe] | – | much less active | highly selective for hsst2 | nanomolar range | –
5 | c[Pro-Phe-(2R,3S)-β-MeTrp-Lys-Thr-Phe] | – | more potent than the parent peptide | highly selective for hsst2 | nanomolar range | binding to receptor hsst2 (hsst2; listed as (2R,3S)-β-MeTrp diastereomer): bind very well to hsst2
